Where a SMILES comes first, the peptide text is derived from it.
Legend:
[1] = rat intestinal in situ perfusion permeability; format: in vivo
Procedure: To determine the intestinal permeability of the various peptide analogs, male albino Sprague-Dawley rats, 9-10 weeks old and weighing 250-350 g were fasted for 18 hours with free access to water. The rats were anesthetized with an intramuscular injection of ketamine/xylazine/butorphanol (87 mg/kg, 6 mg/kg, and 0.2 mg/kg body weight, respectively). The abdomen was opened by a 4-5 cm midline incision and a 10 cm jejunal segment was cannulated on two ends and connected to a syringe pump that pumps the perfusing solution through the cannulated intestine at a constant rate and at a temperature of 37° C. The isolated segment was rinsed with 10 mM MES (pH 6.5) at a flow-rate of 0.5 ml/min in order to clean out any residual debris. Jejunal perfusion was subsequently performed with the same buffer containing 135 mM NaCl, 5 mM KCl and 0.01% PEG 4000 at a flow rate of 0.2 ml/min containing test compound, internal permeability reference standards (e.g., metoprolol) and ^14C-PEG 4000 as a non-absorbable marker for measuring water flux. After steady-state is reached within the perfused intestinal segment, typically 30 minutes after start of perfusion, samples were taken at 10 minute intervals for 1 hour. ^14C (PEG-4000) levels are assayed by scintillation counting and test compounds and internal permeability standard analysis by LC/MS/MS. Samples are frozen and stored at −80° C. until analysis.
The effective permeability (Peff) determined from the in situ perfusion is calculated from equation 1
[formula] where Q is the perfusion buffer flow rate, C′out is the outlet concentration of the compound that has been adjusted for water transport (equation 2) after passing through the intestinal segment, C′in is the inlet or starting concentration of the compound, R is the radius of the intestinal segment (set to 0.2 cm) and L is the length of the intestinal segment. To correct for water transport, a non-absorbed radioactive tracer, ^14C PEG-4000, is included in the perfusion buffer. The Cout/Cin ratio is corrected for water transport according to equation 2:
[formula] where Aout-A0 is equal to the radioactivity counts in the outlet sample minus background (dpm) and Ain-A0 is equal to the radioactivity counts in the inlet sample minus background (dpm).
In certain instances, in addition to perfusing the intestinal segment as described, plasma is drawn through a portal vein cannula to determine the amount of material entering the portal system during the perfusion. This additional experimental step can aid in determining the true intestinal permeability of unstable compounds. After steady state conditions are reached as described above, 0.5 ml aliquots of plasma are withdrawn from the portal vein at regular intervals throughout the experimental time frame. The plasma samples are deproteinated with acetonitrile and the sample is subjected to SPE and LC/MS analysis as described above. From the plasma concentration of compound, the mesenteric permeability can be determined by substitution into equation 3: Flux=A*Pe-mes*Ci 3) where Flux is equal to the portal blood flow (estimated at 1 ml/min in the rat)×the steady state mesenteric blood concentration of the peptide analogs, A is the absorptive area of the intestine (estimated at 12.56 cm^2 in the rat intestine), Pe-mes is the mesenteric Permeability (cm/sec), and Ci is the starting concentration of drug in the perfusate (ug/ml).

γ-thrombin = experiment: inhibition of γ-thrombin hydrolysis of chromogenic substrate; format: biochemical, human; settings: read-out: Ki (μM) + SD, γIIa (2 nM); gamma-thrombin 2 nM, Sar-Pro-Arg-paranitroanilide
[2] = system: normal human lung fibroblasts (NHLF); experiment: α-thrombin-induced calcium mobilization in normal human lung fibroblasts; format: cell-based; settings: 2 nM alpha thrombin
Procedure: The second assay developed to assess peptides from the combinatorial libraries uses inhibition of α-thrombin-induced calcium mobilization in fibroblasts. Normal human lung fibroblasts (NHLF) were purchased from Clonetics, San Diego, Calif., an affiliate of Bio-Wittaker, Walkersville, Md. The cytoplasmic free Ca^2+ concentration ([Ca^2+]i) was measured using the fluorescent Ca^2+ indicator fura-2 (Molecular Probes, Inc., Eugene, Oreg.). Suspension of fibroblasts in Hepes-Tyrode's buffer were loaded with fura-2 by incubation at 37° C. with 2 μM fura-2/acetoxymethyl ester for 45 minutes according to the method of Rasmussen et al., J. Biol. Chem. 268, 14322 (1993). The labeled fibroblasts were separated from excess probe by washing by centrifugation at 1000 rpm (180 xg). Aliquots of the labeled fibroblasts were transferred into a quartz cuvette with a magnetic stirrer, which was then placed in a thermostatically controlled chamber at 37° C. in a fluorescence spectrophotometer (Perkin-Elmer LS50B spectrofluorometer, Chicago, Ill.). Reagents, test peptide, and α-thrombin (0.25-2 nM), were sequentially added directly to the cuvette. The excitation wavelengths varied between 340 and 380 nm. Fluorescence was measured by recording emitted light at 510 nm as reported by Fisher et al., Mol Pharm. 35, 195 (1989). The minimum emission was determined on a solubilized fibroblast sample in the presence of 10 mM EDTA; maximum emission was determined on the same sample with 10 mM Ca^2+ added. The intrafibroblast free Ca^2+ concentration was calculated by the method of Grykiewicz et al., J. Biol. Chem. 260, 3440 (1985). The ratio of the fluorescence readings was calculated as R=340/380 nm and processed according to the equation [Ca^2+]i=KD((R−Rmin)/Rmax−R))(Sf2/Sb2) to determine the intrafibroblast free Ca^2+ concentration. The KD for fura-2 was assumed to be 224 nM. Rmax and Rmin are the maximum and minimum fluorescence ratios measured at the end of the experiment, respectively; Sf2 and Sb2 are the fluorescence values at 380 nm in the absence and presence of saturating [Ca^2+], respectively. The reaction was monitored for 3-5 minutes.

Compound | Permeability (in situ) (cm/sec) ([1]; rat jejunal in situ perfusion) | Papp ([1]; rat, from portal vein plasma during perfusion, read-out: Permeability (mesenteric)) | Ki (γ-thrombin) | alpha thrombin-induced calcium mobilization ([2]; 0.00038 mM peptide) | inhibition of thrombin-induced calcium mobilization ([2]; 0.003 mM peptide) | inhibition of thrombin-induced calcium mobilization ([2]; 0.08 mM peptide)
N=C(N)NCCC[C@@H](N)C(=O)N1[C@H](C(=O)N2CCC[C@H]2C(=O)NCC(=O)N[C@@H](Cc2ccccc2)C(N)=O)C[C@@H]2CCCC[C@@H]21 [rOicPGF, D-Arg-Oic-Pro-Gly-Phe, reference compound] (HELM PEPTIDE1{[dR].[O=C([C@@H]1C[C@@H]2CCCC[C@@H]2N1[*:1])[*:2]].P.G.F.[am]}$$$$V2.0) | Degraded | 0.451 ×10⁻⁶ cm/s |  |  |  | 
Cc1ccc(C[C@H](NC(=O)[C@@H](C)NC(=O)[C@@H]2CCCN2C(=O)[C@@H]2C[C@@H]3CCCC[C@@H]3N2C(=O)[C@H](N)CCCNC(=N)N)C(N)=O)cc1 [rOicPaF(p-Me), D-Arg-Oic-Pro-D-Ala-Phe(p-Me)] (HELM PEPTIDE1{[dR].[O=C([C@@H]1C[C@@H]2CCCC[C@@H]2N1[*:1])[*:2]].P.[dA].[Cc1ccc(C[C@H](N[*:1])C(=O)[*:2])cc1].[am]}$$$$V2.0) |  |  | 54.3 ± 16 µM | full recovery | 69% | 97%

From patent publication US7879792B2, “Synthetic peptide inhibitors of thrombin and thrombin activation of protease activated receptors 1 and 4” (The Regents of the University of Michigan, priority 2005, dated 2011)
